# Measurements: patent publication US20220361493A1, “HERBICIDE COMPOSITION” (UPL CORPORATION LIMITED, priority 2019, published 2022)
# Columns and labels:
# Assay in all cases: Herbicidal efficacy, % weed control
# Format in all cases: in vivo
# [1] = tested on: Cenchrus echinatus; settings: 35 days after administration
# Excerpt: (§1) This effectiveness of all treatments can be evaluated according to Colby's equation. In the Colby's equation given below, E is the expected efficacy of combination of Propisochlor and another herbicide, X is the observed efficacy of Propisochlor and Y is the observed efficacy of other herbicide. Observed efficacy values i.e. X and Y are % weed control for Propisochlor and another herbicide. If observed efficacy of combination of Propisochlor and other herbicide is greater than its expected efficacy, then combination is determined to be synergistic. If observed efficacy is equal to or less than expected efficacy, then combination is determined to be non-synergistic.
# (§2) Experiments were carried out to evaluate the efficacy of combinations of present invention.
# (§3) Herbicidal activity of synergistic mixtures of the combinations of present invention is represented in below tables.
# [2] = tested on: Ipomoea grandifolia
# Excerpt: as §1, §2, §3
# [3] = tested on: Commelina benghalensis; settings: 35 days after administration
# Excerpt: as §1, §2, §3
# [4] = tested on: Brachiaria decumbens; settings: 35 days after administration
# Excerpt: as §1, §2, §3
# [5] = tested on: Brachiaria plantaginea; settings: 35 days after administration, Table 1
# Excerpt: as §1, §2, §3
# [6] = tested on: Spermacoce verticillata; settings: 35 days after administration, Table 2
# Excerpt: as §1, §2, §3
# [7] = tested on: Ipomoea hederifolia; settings: 35 days after administration, Table 2
# Excerpt: as §1, §2, §3
# [8] = tested on: Eleusine indica; settings: 35 days after administration, Table 2
# Excerpt: as §1, §2, §3
smiles,measurement,setting,value
CCSC(C)CC1CC(=O)C(/C(CC)=N/OC/C=C/Cl)=C(O)C1 (stereo not drawn) [Clethodim],% Weed control Cenchrus echinatus,"[1]; 120 g ai/ha, Table 4",0.0%
CN(C)C(=O)Nc1ccc(Cl)c(Cl)c1 [Diuron],% Weed control Ipomoea grandifolia,"[2]; 500 g ai/ha, 21 days after administration, Table 7",0.0%
same,% Weed control Ipomoea grandifolia,"[2]; 1000 g ai/ha, 35 days after administration, Table 9",0.0%
same,% Weed control Ipomoea grandifolia,"[2]; 2000 g ai/ha, 35 days after administration, Table 9",0.0%
same,% Weed control Cenchrus echinatus,"[1]; 1000 g ai/ha, Table 9",5.0%
same,% Weed control Cenchrus echinatus,"[1]; 2000 g ai/ha, Table 9",1.3%
same,% Weed control Commelina benghalensis,"[3]; 500 g ai/ha, Table 8",0%
same,% Weed control Brachiaria decumbens,"[4]; 1000 g ai/ha, Table 9",3.8%
same,% Weed control Brachiaria decumbens,"[4]; 2000 g ai/ha, Table 9",12.5%
C#CCN1C(=O)COc2cc(F)c(N3C(=O)C4=C(CCCC4)C3=O)cc21 [Flumioxazin],% Weed control Brachiaria plantaginea,[5]; 50 g ai/ha,53.75%
same,% Weed control Commelina benghalensis,"[3]; 50 g ai/ha, Table 1",90.25%
same,% Weed control Brachiaria decumbens,"[4]; 50 g ai/ha, Table 1",63.75%
COC(=O)[C@@H](C)Oc1ccc(Oc2ncc(C(F)(F)F)cc2Cl)cc1 [Haloxyfop-p-methyl],% Weed control Brachiaria decumbens,"[4]; 62.1 g ai/ha, Table 3",11.3%
CN(C)c1nc(=O)n(C2CCCCC2)c(=O)n1C [Hexazinone],% Weed control Commelina benghalensis,"[3]; 125 g ai/ha, Table 6",45.0%
same,% Weed control Brachiaria decumbens,"[4]; 125 g ai/ha, Table 6",11.3%
CCc1cccc(C)c1N(COC(C)C)C(=O)CCl [Propisochlor],% Weed control Spermacoce verticillata,[6]; 525 g ai/ha,92.75%
same,% Weed control Spermacoce verticillata,[6]; 675 g ai/ha,95.75%
same,% Weed control Ipomoea hederifolia,[7]; 525 g ai/ha,26.25%
same,% Weed control Ipomoea hederifolia,[7]; 675 g ai/ha,27%
same,% Weed control Eleusine indica,[8]; 525 g ai/ha,99.75%
same,% Weed control Eleusine indica,[8]; 675 g ai/ha,100.00%
same,% Weed control Ipomoea grandifolia,"[2]; 540 g ai/ha, 21 days after administration, Table 7",7.5%
same,% Weed control Ipomoea grandifolia,"[2]; 540 g ai/ha, 35 days after administration, Table 9",0.0%
same,% Weed control Ipomoea grandifolia,"[2]; 540 g ai/ha, 35 days after administration, Table 11",53.8%
same,% Weed control Ipomoea grandifolia,"[2]; 1080 g ai/ha, 21 days after administration, Table 7",22.5%
same,% Weed control Ipomoea grandifolia,"[2]; 1080 g ai/ha, 35 days after administration, Table 10",45.0%
same,% Weed control Ipomoea grandifolia,"[2]; 1080 g ai/ha, 35 days after administration, Table 11",55.50%
same,% Weed control Cenchrus echinatus,"[1]; 540 g ai/ha, Table 4",71.3%
same,% Weed control Cenchrus echinatus,"[1]; 540 g ai/ha, Table 5",71.3%
same,% Weed control Cenchrus echinatus,"[1]; 540 g ai/ha, Table 9",91.8%
same,% Weed control Cenchrus echinatus,"[1]; 1080 g ai/ha, Table 4",88.8%
same,% Weed control Cenchrus echinatus,"[1]; 1080 g ai/ha, Table 5",88.8%
same,% Weed control Brachiaria plantaginea,[5]; 1200 g ai/ha,84.50%
same,% Weed control Commelina benghalensis,"[3]; 1080 g ai/ha, Table 6",90.8%
same,% Weed control Commelina benghalensis,"[3]; 1080 g ai/ha, Table 8",90.8%
same,% Weed control Commelina benghalensis,"[3]; 1080 g ai/ha, Table 10",90.8%
same,% Weed control Commelina benghalensis,"[3]; 1200 g ai/ha, Table 1",92.00%
same,% Weed control Brachiaria decumbens,"[4]; 540 g ai/ha, Table 9",68.8%
same,% Weed control Brachiaria decumbens,"[4]; 1080 g ai/ha, Table 3",92.0%
same,% Weed control Brachiaria decumbens,"[4]; 1080 g ai/ha, Table 6",75.0%
same,% Weed control Brachiaria decumbens,"[4]; 1200 g ai/ha, Table 1",85.75%
CCOC(=O)[C@@H](C)Oc1ccc(Oc2cnc3cc(Cl)ccc3n2)cc1 [Quizalafop-p-ethyl],% Weed control Cenchrus echinatus,"[1]; 87.5 g ai/ha, Table 5",77.5%
Cc1nn(-c2cc(NS(C)(=O)=O)c(Cl)cc2Cl)c(=O)n1C(F)F [Sulfentrazone],% Weed control Spermacoce verticillata,[6]; 75 g ai/ha,92.25%
same,% Weed control Ipomoea hederifolia,[7]; 75 g ai/ha,98.00%
same,% Weed control Eleusine indica,[8]; 75 g ai/ha,90.00%
CNC(=O)N(C)c1nnc(C(C)(C)C)s1 [Tebuthiuron],% Weed control Ipomoea grandifolia,"[2]; 400 g ai/ha, 35 days after administration, Table 10",12.5%
same,% Weed control Commelina benghalensis,"[3]; 400 g ai/ha, Table 10",0.0%
CCCN(CCC)c1c([N+](=O)[O-])cc(C(F)(F)F)cc1[N+](=O)[O-] [Trifluralin],% Weed control Ipomoea grandifolia,"[2]; 300 g ai/ha, 35 days after administration, Table 11",0.0%
